Assay results as given in ChEMBL document CHEMBL1201862, “PubChem BioAssay data set” (2004).
Calls of active or inactive are those of the source.

Assays:
[1] = Counterscreen for inhibitors of Trypanosoma brucei methionyl tRNA synthetase (MetRS): Luminescence-based cell-based high throughput dose response assay to identify compounds that are cytotoxic to Jurkat human T lymphocyte cells.; assay type: functional
[2] = HIV-1 AD8 envelope cell-cell fusion blockers – cherry-pick, dose response (AID 652062); assay type: functional, cell-based;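 further: luciferase signal from cell-cell fusion driven by HIV-1 clade B AD8 Env; potency is for inhibitors of fusion seen as a drop in luminescence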
[3] = blockers of HIV-1 envelope-mediated cell-cell fusion – cherry-pick, dose response (AID 652057); assay type: functional, cell-based
[4] = off-target signal loss in HeLa-CEM21 co-culture – HeLa F-luc CTL cells, cherry-picked, counter-screen for HIV-1 Env fusion inhibitor project, dose response (AID 652040); assay type: functional, cell-based;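 further: potency for signal decrease marking cytotoxic or nonspecific inhibition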
BJ [5] = assay: BJ-TERT-LT-ST fibroblast viability loss – cell-based, RAS-independent, luminescence, dose response (AID 1935); assay type: functional; details: Homo sapiens;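 further: BJ fibroblasts immortalized with TERT plus LT and ST oncogenes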
[6] = DRD fibroblast viability loss – cell-based, non-viral oncogenic, luminescence, dose response (AID 1934); assay type: functional; details: Homo sapiens
BJ [7] = assay: BJ-TERT fibroblast viability loss – cell-based, RAS-independent, luminescence, dose response (AID 1933); assay type: functional; details: Homo sapiens
BJ [8] = assay: cells; assay type: functional, cell-based; details: Homo sapiens
Estrogen receptor beta = Estrogen receptor beta (Homo sapiens, UniProt Q92731);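 further: recombinant ER-beta bound to coactivator SRC1 peptide in presence of estradiol agonist; inhibitors block coactivator peptide binding and lower the FRET signal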
[9] = target: Ras and Rab interactor 1/Tyrosine-protein kinase ABL1 (Homo sapiens, UniProt P00519+Q13671); assay type: functional;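 further: biochemical TR-FRET dose-response test measuring inhibition of binding between Rin1 and Abl proteins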
H9c2 = assay: cells; assay type: functional, cell-based; details: Rattus norvegicus, H9c2, Myocardium;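 further: confirmatory concentration-response retest of ultra-high-throughput screening hits for modulation of myocardial damage; cell death induced by hydrogen peroxide oxidative stress; compound pretreatment for 60 min then peroxide exposure for 2 h; potency is for protecting the cells against peroxide damage rather than for killing them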
[10] = target: T1, Calpain-2 catalytic subunit (Sus scrofa, UniProt P43367); assay: m-calpain protease blockers, concentration series – biochemical, fluorogenic peptide substrate, dose response (AID 1420); assay type: functional
T1 sequence (P43367 whole entry): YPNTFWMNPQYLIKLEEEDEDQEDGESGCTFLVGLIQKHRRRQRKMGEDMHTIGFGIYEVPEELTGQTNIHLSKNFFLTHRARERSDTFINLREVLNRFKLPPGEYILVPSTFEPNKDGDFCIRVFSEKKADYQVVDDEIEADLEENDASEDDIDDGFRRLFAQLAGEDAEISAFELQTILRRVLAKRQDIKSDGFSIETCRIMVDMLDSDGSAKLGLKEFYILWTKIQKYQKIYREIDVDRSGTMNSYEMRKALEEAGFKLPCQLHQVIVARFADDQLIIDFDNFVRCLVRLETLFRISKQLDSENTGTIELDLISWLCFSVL

Fatty acid synthase [11] = target: T2, Fatty acid synthase (Homo sapiens, UniProt P49327); assay: inhibition of human FAS-TE enzyme activity – biochemical, endpoint fluorescence intensity, uHTS hits, dose response (AID 624327); assay type: functional;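 further: fluorescence from hydrolysis of an O-methyl fluorescein acyl ester substrate by the enzyme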
Fatty acid synthase [12] = target: T2, Fatty acid synthase; assay: inhibition of human FAS-TE enzyme activity – biochemical, kinetic fluorescence intensity, dose response (AID 624326); assay type: functional;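 further: rate of fluorescence rise from hydrolysis of a fluorogenic O-methyl fluorescein ester substrate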
[13] = target: T3, Replicative DNA helicase DnaB (Mycobacterium tuberculosis, UniProt P9WMR3); assay: DnaB intein splicing inhibitors, dose response, biochemical, cell-free fluorescence (AID 449749); assay type: functional
T3 sequence (P9WMR3 whole entry): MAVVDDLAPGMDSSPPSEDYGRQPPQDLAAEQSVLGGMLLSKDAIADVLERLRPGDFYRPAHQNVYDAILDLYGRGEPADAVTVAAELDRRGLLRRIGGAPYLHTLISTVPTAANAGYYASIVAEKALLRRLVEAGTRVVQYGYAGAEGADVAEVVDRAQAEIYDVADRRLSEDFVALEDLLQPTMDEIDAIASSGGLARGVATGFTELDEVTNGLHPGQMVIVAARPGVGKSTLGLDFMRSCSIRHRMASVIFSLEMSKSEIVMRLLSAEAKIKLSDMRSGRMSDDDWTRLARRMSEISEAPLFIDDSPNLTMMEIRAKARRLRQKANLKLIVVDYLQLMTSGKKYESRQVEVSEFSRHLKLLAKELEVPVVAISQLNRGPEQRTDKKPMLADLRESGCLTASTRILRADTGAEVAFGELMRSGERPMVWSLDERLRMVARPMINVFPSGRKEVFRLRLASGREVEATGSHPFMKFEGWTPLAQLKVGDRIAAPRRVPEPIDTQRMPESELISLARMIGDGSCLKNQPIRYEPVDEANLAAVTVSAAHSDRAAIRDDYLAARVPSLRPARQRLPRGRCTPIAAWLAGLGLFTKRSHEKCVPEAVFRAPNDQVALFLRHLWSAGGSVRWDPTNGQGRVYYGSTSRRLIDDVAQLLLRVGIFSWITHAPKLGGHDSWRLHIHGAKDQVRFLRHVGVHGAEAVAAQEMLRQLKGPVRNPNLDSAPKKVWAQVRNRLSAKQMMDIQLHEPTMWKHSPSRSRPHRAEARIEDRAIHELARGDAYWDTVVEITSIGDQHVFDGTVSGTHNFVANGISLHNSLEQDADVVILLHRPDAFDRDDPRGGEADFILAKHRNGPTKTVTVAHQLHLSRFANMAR

Protein RecA = target: T4, Protein RecA (Mycobacterium tuberculosis, UniProt P9WHJ3); assay: Fluorescence Cell-Free Homogeneous Dose Retest to Identify Inhibitors of RecA-Intein Splicing Activity. [Related pubchem assays (depositor defined):AID2097, AID2223, AID489010, AID492950]; assay type: functional
T4 sequence (P9WHJ3 whole entry): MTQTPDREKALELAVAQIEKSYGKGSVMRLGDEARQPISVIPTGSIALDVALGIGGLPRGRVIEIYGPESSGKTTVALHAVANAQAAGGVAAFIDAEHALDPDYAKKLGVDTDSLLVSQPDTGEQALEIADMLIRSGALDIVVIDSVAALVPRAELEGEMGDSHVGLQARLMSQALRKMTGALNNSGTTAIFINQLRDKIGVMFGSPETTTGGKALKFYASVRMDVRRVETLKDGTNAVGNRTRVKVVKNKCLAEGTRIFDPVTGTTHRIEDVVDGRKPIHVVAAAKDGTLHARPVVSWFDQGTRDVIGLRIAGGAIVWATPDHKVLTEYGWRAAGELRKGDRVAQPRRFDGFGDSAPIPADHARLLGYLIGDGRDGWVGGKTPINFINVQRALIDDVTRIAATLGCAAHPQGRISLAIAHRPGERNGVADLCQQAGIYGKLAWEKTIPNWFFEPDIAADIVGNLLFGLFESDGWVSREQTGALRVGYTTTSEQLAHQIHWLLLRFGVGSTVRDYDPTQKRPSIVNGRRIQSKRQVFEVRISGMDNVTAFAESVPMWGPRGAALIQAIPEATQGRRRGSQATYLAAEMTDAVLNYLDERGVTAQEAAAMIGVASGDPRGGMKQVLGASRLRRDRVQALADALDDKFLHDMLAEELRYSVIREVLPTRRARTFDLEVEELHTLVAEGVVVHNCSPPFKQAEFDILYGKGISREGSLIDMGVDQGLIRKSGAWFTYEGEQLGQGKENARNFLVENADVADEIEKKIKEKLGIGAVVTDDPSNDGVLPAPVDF

[14] = non-specific 3'UTR reporter inhibition in Clone20-Shn3RL – cell-based, Renilla luciferase, cherry-picked, counter-screen for Shn3 inhibitor project, dose response (AID 624133); assay type: functional
[15] = reduction of Shn3 3'UTR-driven luciferase in osteoblasts – cell-based, Clone20 osteoblasts, firefly luciferase, cherry-picked, dose response (AID 624132); assay type: functional;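 further: firefly luciferase luminescence from reporter carrying the Shn3 3'UTR in osteoblasts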
[16] = loss of viability in HepG2 cells – cell-based, CellTiter-Glo, cherry-picked, cytotoxicity control for Shn3 inhibitor project, dose response (AID 624134); assay type: functional
[17] = HEK-293T viability loss after treatment – luminescence, T-cell screen hits, cytotoxicity control for TCR NF-kB inhibitor project, dose response (AID 489026); assay type: functional, cell-based;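 further: cells exposed to compound about 14 hours before the viability readout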
[18] = target: T5, Voltage-gated N-type calcium channel alpha-1B subunit/Amyloid beta A4 precursor protein-binding family A member 1 (Homo sapiens, UniProt Q00975+Q02410); assay type: protein assay
[19] = target: T5, Voltage-gated N-type calcium channel alpha-1B subunit/Amyloid beta A4 precursor protein-binding family A member 1; assay type: protein assay; remark: listed apart in the source
Large T antigen = Large T antigen (Simian virus 40, UniProt P03070); assay type: functional, Betapolyomavirus macacae;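 further: Confirmatory-stage PubChem screen for compounds that inhibit SV40 T antigen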
[20] = target: Heat shock protein HSP 90-alpha (Homo sapiens, UniProt P07900); assay type: functional, organism-based

Chain of Estrogen receptor beta (Q92731 whole entry): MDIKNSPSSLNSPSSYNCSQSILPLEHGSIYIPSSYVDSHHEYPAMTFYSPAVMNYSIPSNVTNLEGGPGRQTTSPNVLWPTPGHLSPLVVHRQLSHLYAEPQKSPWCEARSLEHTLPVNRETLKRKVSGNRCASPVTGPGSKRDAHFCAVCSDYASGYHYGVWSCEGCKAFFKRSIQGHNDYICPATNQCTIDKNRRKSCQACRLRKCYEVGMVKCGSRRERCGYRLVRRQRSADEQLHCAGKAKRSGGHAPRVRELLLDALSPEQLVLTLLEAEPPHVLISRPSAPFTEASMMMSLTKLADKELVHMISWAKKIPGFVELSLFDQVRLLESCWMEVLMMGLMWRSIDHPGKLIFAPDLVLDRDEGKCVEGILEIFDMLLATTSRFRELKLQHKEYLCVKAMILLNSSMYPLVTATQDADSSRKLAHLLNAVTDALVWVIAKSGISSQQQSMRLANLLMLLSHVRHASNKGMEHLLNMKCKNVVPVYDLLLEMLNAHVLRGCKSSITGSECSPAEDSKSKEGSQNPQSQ
T5 sequence (Q00975 whole entry): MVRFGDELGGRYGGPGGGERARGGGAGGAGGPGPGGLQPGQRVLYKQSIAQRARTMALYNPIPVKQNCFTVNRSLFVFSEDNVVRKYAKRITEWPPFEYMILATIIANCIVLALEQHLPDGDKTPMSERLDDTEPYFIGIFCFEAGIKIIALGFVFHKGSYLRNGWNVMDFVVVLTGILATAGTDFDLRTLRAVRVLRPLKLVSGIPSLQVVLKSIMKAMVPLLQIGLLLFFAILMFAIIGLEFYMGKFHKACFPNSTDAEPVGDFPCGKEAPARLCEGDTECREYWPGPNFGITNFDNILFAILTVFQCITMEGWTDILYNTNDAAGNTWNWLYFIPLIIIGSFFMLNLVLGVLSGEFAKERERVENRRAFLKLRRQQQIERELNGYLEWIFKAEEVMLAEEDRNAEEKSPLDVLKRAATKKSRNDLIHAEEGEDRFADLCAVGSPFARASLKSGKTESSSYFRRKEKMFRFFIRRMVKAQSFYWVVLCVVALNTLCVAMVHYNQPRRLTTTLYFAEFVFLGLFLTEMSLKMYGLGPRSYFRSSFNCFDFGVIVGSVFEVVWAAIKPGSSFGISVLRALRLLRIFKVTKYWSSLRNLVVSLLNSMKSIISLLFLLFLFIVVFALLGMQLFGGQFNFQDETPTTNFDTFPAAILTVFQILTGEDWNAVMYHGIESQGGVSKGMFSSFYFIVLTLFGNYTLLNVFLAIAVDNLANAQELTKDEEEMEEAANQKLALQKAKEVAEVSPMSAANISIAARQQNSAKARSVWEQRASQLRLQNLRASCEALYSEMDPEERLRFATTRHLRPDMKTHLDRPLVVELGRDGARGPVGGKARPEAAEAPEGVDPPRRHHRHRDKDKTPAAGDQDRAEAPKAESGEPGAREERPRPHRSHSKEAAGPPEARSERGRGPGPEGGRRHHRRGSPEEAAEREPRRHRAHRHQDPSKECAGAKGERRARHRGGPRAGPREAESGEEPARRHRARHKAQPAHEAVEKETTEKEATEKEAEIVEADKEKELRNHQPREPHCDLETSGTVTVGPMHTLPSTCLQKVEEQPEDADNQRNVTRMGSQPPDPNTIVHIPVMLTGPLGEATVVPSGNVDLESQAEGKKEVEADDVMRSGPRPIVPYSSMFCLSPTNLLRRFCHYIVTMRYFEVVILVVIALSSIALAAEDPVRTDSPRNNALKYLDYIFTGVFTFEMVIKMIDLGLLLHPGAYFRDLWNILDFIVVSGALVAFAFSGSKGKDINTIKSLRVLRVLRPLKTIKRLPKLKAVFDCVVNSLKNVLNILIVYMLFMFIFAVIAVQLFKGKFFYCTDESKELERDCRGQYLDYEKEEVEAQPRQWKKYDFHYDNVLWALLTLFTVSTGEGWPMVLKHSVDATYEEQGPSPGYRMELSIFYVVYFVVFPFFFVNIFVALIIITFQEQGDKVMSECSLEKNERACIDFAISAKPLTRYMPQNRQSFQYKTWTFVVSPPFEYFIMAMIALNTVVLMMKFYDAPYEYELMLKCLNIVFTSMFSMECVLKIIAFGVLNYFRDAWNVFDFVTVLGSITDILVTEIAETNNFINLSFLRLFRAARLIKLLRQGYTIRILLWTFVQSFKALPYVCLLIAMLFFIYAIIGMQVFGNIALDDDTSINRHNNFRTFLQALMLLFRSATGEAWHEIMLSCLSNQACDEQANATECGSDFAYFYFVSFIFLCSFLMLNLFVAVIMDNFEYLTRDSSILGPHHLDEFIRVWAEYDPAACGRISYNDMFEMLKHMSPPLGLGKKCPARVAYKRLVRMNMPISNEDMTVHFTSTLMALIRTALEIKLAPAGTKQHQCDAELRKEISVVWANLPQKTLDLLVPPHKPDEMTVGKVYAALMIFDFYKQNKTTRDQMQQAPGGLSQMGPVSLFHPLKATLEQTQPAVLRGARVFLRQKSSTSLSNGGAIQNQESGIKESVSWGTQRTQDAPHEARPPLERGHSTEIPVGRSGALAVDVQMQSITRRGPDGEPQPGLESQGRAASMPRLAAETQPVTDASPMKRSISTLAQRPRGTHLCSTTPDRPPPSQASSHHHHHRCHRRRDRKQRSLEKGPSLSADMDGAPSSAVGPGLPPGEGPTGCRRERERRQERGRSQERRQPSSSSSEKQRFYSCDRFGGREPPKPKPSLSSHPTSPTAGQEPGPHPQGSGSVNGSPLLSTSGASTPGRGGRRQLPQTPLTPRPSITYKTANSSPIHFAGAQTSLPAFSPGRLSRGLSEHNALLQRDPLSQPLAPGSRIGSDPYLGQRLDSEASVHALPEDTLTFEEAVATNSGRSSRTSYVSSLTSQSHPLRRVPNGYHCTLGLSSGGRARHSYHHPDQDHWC
T5 sequence (Q02410 whole entry): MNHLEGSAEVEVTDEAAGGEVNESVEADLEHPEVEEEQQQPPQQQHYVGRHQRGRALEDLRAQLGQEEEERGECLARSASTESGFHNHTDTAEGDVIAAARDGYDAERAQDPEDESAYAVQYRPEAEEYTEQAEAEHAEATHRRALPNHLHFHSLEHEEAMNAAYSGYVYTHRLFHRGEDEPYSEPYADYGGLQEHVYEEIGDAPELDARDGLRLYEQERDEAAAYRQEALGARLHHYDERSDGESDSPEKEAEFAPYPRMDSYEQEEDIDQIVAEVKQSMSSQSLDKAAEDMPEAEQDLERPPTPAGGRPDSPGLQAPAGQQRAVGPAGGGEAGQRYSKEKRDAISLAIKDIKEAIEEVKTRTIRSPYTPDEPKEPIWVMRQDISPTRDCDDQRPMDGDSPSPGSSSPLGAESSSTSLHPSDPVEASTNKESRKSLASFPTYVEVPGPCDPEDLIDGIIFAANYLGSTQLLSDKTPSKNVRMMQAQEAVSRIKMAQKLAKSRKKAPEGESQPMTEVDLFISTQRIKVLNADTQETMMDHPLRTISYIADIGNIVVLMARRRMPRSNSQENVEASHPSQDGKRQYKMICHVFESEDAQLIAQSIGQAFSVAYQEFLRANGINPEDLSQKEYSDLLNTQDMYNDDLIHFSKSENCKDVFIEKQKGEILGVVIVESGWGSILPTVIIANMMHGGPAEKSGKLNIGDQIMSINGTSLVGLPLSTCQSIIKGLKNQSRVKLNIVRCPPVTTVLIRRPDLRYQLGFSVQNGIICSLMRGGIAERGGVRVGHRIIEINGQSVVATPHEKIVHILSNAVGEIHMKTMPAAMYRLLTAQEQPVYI
Chain of Large T antigen (P03070 whole entry): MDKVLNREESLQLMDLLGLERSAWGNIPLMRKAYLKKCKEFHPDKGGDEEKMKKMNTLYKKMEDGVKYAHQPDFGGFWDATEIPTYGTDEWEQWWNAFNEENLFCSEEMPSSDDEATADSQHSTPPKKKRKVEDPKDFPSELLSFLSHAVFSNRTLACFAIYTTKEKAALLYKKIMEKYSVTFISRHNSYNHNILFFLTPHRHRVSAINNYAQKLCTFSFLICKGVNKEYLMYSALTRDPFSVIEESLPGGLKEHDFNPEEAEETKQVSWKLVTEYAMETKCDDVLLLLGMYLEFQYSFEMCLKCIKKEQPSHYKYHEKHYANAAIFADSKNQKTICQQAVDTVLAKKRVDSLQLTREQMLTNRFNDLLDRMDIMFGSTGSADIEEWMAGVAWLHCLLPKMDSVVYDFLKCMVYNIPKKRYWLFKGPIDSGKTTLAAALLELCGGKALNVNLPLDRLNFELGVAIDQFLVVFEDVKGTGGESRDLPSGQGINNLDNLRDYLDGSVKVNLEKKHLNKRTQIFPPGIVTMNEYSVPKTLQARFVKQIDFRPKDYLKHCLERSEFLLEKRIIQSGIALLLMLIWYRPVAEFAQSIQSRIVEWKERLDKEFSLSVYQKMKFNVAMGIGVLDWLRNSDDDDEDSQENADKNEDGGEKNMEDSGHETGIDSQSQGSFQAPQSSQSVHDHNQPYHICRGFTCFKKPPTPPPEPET

Structure (SMILES): NS(=O)(=O)c1ccc(CCNC(=O)c2cc(-c3cc(Cl)ccc3O)[nH]n2)cc1
- IC50 [1]: 43.3 µM (inactive)

Structure (SMILES): CCN(CC)S(=O)(=O)c1cccc(S(=O)(=O)c2cccc(S(=O)(=O)N(CC)CC)c2)c1
- AC50 [2]: 18.3 µM (active)
- AC50 [3]: 20.8 µM (active)
- AC50 [4]: 43.7 µM (active)

Structure (SMILES): O=C(/C=C/c1ccco1)NC(=S)Nc1cccc(-c2nc3ccccc3o2)c1
- EC50 (BJ [5]): 3.83 µM (active)
- EC50 [6]: 12.1 µM (inconclusive)
- EC50 (BJ [7]): 9.72 µM (active)
- EC50 (BJ [8]): 88.3 µM (active)

Structure (SMILES): COc1cccc(-n2nc(-c3ccnn3-c3ccc(F)cc3)c(=O)n(C)c2=O)c1
- IC50 (Estrogen receptor beta): > 50 µM (not active)

Structure (SMILES): O=C(CC1SCCNC1=O)Nc1cccc(Cl)c1 (configuration not stated)
- IC50 [9]: 20.8 µM (inactive)

Structure (SMILES): CC(=O)Nc1cccc(NC(=O)c2cc(-c3cccnc3)nc3ccc(Br)cc23)c1
- IC50 (H9c2): 37.9 µM (inactive)

Structure (SMILES): Cc1cc(-c2ccc(N3C(=O)CCC3=O)c(C)c2)ccc1N1C(=O)CCC1=O
- IC50 (Estrogen receptor beta): > 50 µM (not active)

Structure (SMILES): CCN(CC)C(=O)CSc1nc(Cc2ccccc2)nc2ccccc12
- IC50 [9]: > 73.4 µM (inactive)

Structure (SMILES): Cc1ccc(C)c(NC(=O)Cc2nc(CCl)cs2)c1
- IC50 [10]: 1.04 µM (not active)

Structure (SMILES): O=C(Nc1ccc(Br)cc1)c1cccc(-n2cnnn2)c1
- IC50 (Fatty acid synthase [11]): 32.9 µM (inactive)
- IC50 (Fatty acid synthase [12]): 24.8 µM (inactive)

Structure (SMILES): CCc1ccc(C(=O)C(C)OC(=O)Cc2nnc(O)c3ccccc23)cc1 (configuration not stated)
- EC50 (BJ [5]): > 150 µM (inconclusive)
- EC50 [6]: 17.9 µM (active)
- EC50 (BJ [7]): 18.2 µM (active)
- EC50 (BJ [8]): 49.9 µM (inconclusive)

Structure (SMILES): O=C(COC(=O)CSc1ccc2ccccc2c1)Nc1ccccc1OC(F)F
- IC50 [10]: 1.8 µM (not active)

Structure (SMILES): N#CC12CCCCC1CC1CCCCC1(C#N)N2Cc1cccnc1 (configuration not stated)
- IC50 [9]: 1.68 µM (active)

Structure (SMILES): Cc1c([C@H]2[C@@H](CC#N)C2(C)C)c2ccccc2n1C
- IC50 (Estrogen receptor beta): > 50 µM (not active)

Structure (SMILES): O=[N+]([O-])c1ccc(Oc2cccc(F)c2)c2ccncc12
- AC50 [13]: > 380 µM (inactive)
- EC50 (Protein RecA): 956 nM (active)
- IC50 [10]: 3.5 µM (not active)

Structure (SMILES): COc1ccc(/C=C/C(=O)c2ccc(C(=O)/C=C/c3ccc(OC)c(OC)c3)cc2)cc1OC
- AC50 [14]: 25.9 µM (active)
- AC50 [15]: 5.18 µM (active)
- EC50 (BJ [5]): 10.7 µM (inconclusive)
- EC50 [6]: 10.4 µM (active)
- AC50 [16]: 69.1 µM (active)
- EC50 (BJ [7]): 7.92 µM (active)
- EC50 (BJ [8]): 27 µM (active)

Structure (SMILES): COc1cc(NS(=O)(=O)c2ccc(OC)c(C)c2C)c(OC)cc1Cl
- IC50 [17]: > 80 µM (inactive)

Structure (SMILES): Cn1sc(=O)c2cc(S(=O)(=O)NC3CC3)ccc21
- IC50 [18]: 9.45 µM (active)
- IC50 [19]: 15.6 µM (active)
- IC50 (Large T antigen): 57.3 µM (active)

Structure (SMILES): COc1cccc(NC(=O)NC2(C(F)(F)F)Oc3ccccc3O2)c1
- IC50 (H9c2): > 79 µM (inactive)

Structure (SMILES): COc1ccc(OC)c(C2CC(=O)c3c([nH]c(C(=O)OCC4CCCO4)c3C)C2)c1 (configuration not stated)
- IC50 (H9c2): 21.1 µM (active)

Structure (SMILES): O=C(/C=C/c1ccc([N+](=O)[O-])cc1)N(c1ccccn1)C1CCCCC1
- IC50 [18]: 29.1 µM (active)
- IC50 [19]: 10.5 µM (active)

Structure (SMILES): O=C(CN=C(S)N(Cc1ccccc1)Cc1ccccc1F)NCc1ccccc1
- IC50 [10]: > 50 µM (not active)

Structure (SMILES): C[C@@]12C(=O)N(c3cccc(Br)c3)C(=O)N1[C@H](c1ccc(Cl)cc1)[C@@H]1C(=O)N(C3CCCCC3)C(=O)[C@@H]12
- IC50 (Fatty acid synthase [11]): 7.4 µM (active)
- IC50 (Fatty acid synthase [12]): 5.22 µM (active)

Structure (SMILES): Oc1ccc(O)c2c1C1(Cl)C(Cl)=C(Cl)C2(Cl)C1(Cl)Cl
- IC50 (Fatty acid synthase [11]): 15.7 µM (active)
- IC50 (Fatty acid synthase [12]): 14.1 µM (active)
- AC50 [20]: 8.21 µM (active)

Structure (SMILES): COc1ccc(C(=O)N2CCN(CCc3ccccc3)CC2)cc1[N+](=O)[O-]
- IC50 (Fatty acid synthase [11]): 0.786 µM (active)
- IC50 (Fatty acid synthase [12]): 0.525 µM (active)

Structure (SMILES): CC(=O)Nc1ccc2c(c1)nc(O)c1ccccc12
- IC50 (H9c2): 34 µM (inactive)

Structure (SMILES): COc1cc(-c2cc(C(=O)NCc3ccco3)c3ccccc3n2)cc(OC)c1OC
- IC50 (H9c2): 13.2 µM (active)

Structure (SMILES): CN(C)C(=O)CSc1nc(O)c2ccccc2n1
- IC50 (H9c2): > 79 µM (inactive)

Structure (SMILES): CCc1nc2ccc(C(=O)Nc3cccc(OCC(=O)N(C)C)c3)cn2c1N(C)Cc1cc2ccccc2s1
- IC50 (H9c2): > 79 µM (inactive)

Structure (SMILES): OCCNc1ncnc2c1ncn2[C@H]1CN(Cc2ccc(-c3ccccc3)cc2)C[C@@H](CO)O1
- IC50 [9]: 12.6 µM (inactive)

Structure (SMILES): CSc1ccc(CN2C(=O)C(F)(F)Oc3c(C(C)=O)cccc32)cc1
- IC50 (Fatty acid synthase [11]): 9.19 µM (active)
- IC50 (Fatty acid synthase [12]): 9.77 µM (active)

Structure (SMILES): COc1cc(/C=N/n2cnnc2)ccc1OS(=O)(=O)c1ccccc1[N+](=O)[O-]
- IC50 [10]: 15.5 µM (not active)
